Test results: patent US20080167461A1, “Process for Preparing 3,6-Dichloropyridazine-1-Oxide” (SANKYO AGRO COMPANY, LIMITED, priority 2005, published 2008)

What was measured:
Cyperus serotinus = assay: Treatment prior to germination of rice paddy weeds (flooding soil treatment, pot test); assay type: in vivo; details: dose 10 g/a; wettable powder diluted with water, treated 3 days after transplant under flooding; evaluated 25 days after treatment
From the text: (§1) Rice paddy soil was filled into a 1/10,000a pot, followed by mixing seeds of dormancy awakening Echinochloa oryzicola and Scirpus joncoides, and annual broadleaf weeds (Lindernia spp. and Rotala indica) in 1 cm of the surface layer of soil. In addition, Cyperus serotinus tubers subjected to accelerated germination were planted, followed by transplanting rice seedlings at the 2.2 leaf stage and growing under flooding conditions in a greenhouse. Three days after transplant, a predetermined dose of the wettable powder prepared according to Reference Example 2 was diluted with water, the soil was treated with a spraying solution thereof under flooding conditions and herbicidal effects and chemical damage to the transplanted rice plants were measured according to the evaluation criteria shown below 25 days after treatment.
(§2) 0: Growth inhibition rate 0 to 10%
(§3) 1: Growth inhibition rate 11 to 30%
(§4) 2: Growth inhibition rate 31 to 50%
(§5) 3: Growth inhibition rate 51 to 70%
(§6) 4: Growth inhibition rate 71 to 90%
(§7) 5: Growth inhibition rate 91 to 100%

Echinochloa oryzicola = assay: as above; assay type: in vivo; details: dose 10 g/a; wettable powder diluted with water, treated 3 days after transplant under flooding; evaluated 25 days after treatment
From the text: as §1, §2, §3, §4, §5, §6, §7

Scirpus joncoides = assay: as above; assay type: in vivo; details: dose 10 g/a; wettable powder diluted with water, treated 3 days after transplant under flooding; evaluated 25 days after treatment
From the text: as §1, §2, §3, §4, §5, §6, §7

[1] = test system: annual broadleaf weeds (Lindernia spp. and Rotala indica); assay: as above; assay type: in vivo; details: dose 10 g/a; wettable powder diluted with water, treated 3 days after transplant under flooding; evaluated 25 days after treatment
From the text: as §1, §2, §3, §4, §5, §6, §7

rice plants = assay: Chemical damage to transplanted rice plants (flooding soil treatment, pot test); assay type: in vivo
From the text: as §1, §2, §3, §4, §5, §6, §7

[2] = test system: dominant weeds of rice paddies; assay: Herbicidal activity in rice paddies, flooding soil treatment before or after weed germination (general statement); assay type: in vivo
From the text: The compound synthesized in Reference Example 1 has herbicidal action, and can be used as a herbicide.

## Cc1cccc(C)c1Oc1nnc(Cl)cc1O [Reference Example 1, 6-Chloro-3-(2,6-dimethylphenoxy)-4-pyridazinol]
Cyperus serotinus
  herbicidal activity (growth inhibition grade) against Cyperus serotinus: 5 (Growth inhibition rate 91 to 100%)
Echinochloa oryzicola
  herbicidal activity (growth inhibition grade) against Echinochloa oryzicola: 2 (Growth inhibition rate 31 to 50%)
Scirpus joncoides
  herbicidal activity (growth inhibition grade) against Scirpus joncoides: 5 (Growth inhibition rate 91 to 100%)
[1]
  herbicidal activity (growth inhibition grade) against broadleaf weeds: 5 (Growth inhibition rate 91 to 100%)
Rice plants; flooding soil treatment before or after weed germination, general statement
  chemical toxicity with respect to rice: without demonstrating problems in terms of chemical toxicity
Rice plants; transplanted rice seedlings (2.2 leaf stage), dose 10 g/a, evaluated 25 days after treatment
  activity against rice plants (chemical damage grade): 0 (Growth inhibition rate 0 to 10%)
[2]
  herbicidal activity against dominant weeds of rice paddies: demonstrates herbicidal activity
other
  melting point: 214 to 215 °C
